Values after ≈ are worked out from the molar mass of the structure shown.
Assays:
Type in all cases: functional
P388 = assay: Growth inhibition of mouse P388 cells; settings: read-out: ED50 (the source's name)
BXPC-3 = assay: Growth inhibition of human BxPC3 cells
[1] = Growth inhibition of human KAT4 cells; settings: KAT-4
SW-1736 = assay: Growth inhibition of human SW1736 cells
NCI-H460 = assay: Growth inhibition of human NCI-H460 cells
FaDu = assay: Growth inhibition of human FADU cells
DU-145 = assay: Growth inhibition of human DU145 cells
RPMI-7951 = assay: Growth inhibition of human RPMI7951 cells
U-251 = assay: Growth inhibition of human U251 cells

SMILES	EC50 (P388)	GI50 (BXPC-3)	GI50 [1]	GI50 (SW-1736)	GI50 (NCI-H460)	GI50 (FaDu)	GI50 (DU-145)	GI50 (RPMI-7951)	GI50 (U-251)
CC1(C)[C@@H](O)CC[C@]2(C)[C@H]3C[C@@H](O)[C@]4(C)C5=C(CC[C@H]4[C@]3(C)CC[C@@H]12)COC5=O [SESTERSTATIN 1]	0.46 µg/mL (≈ 1.14 µM)								
C[C@@]1(CO)CCC[C@]2(C)[C@H]3C[C@@H](O)[C@]4(C)C5=C(CC[C@H]4[C@]3(C)CC[C@@H]12)COC5=O [SESTERSTATIN 3]	4.3 µg/mL (≈ 10.7 µM)								
CC1(C)CCC[C@]2(C)[C@H]3C[C@@H](O)[C@]4(C)C5=C(C(=O)O[C@H]5O)[C@@H](O)C[C@H]4[C@]3(C)CC[C@@H]12 [SESTERSTATIN 6]	0.17 µg/mL (≈ 0.406 µM)	0.44 µg/mL (≈ 1.05 µM)	0.4 µg/mL (≈ 0.956 µM)	0.87 µg/mL (≈ 2.08 µM)	0.18 µg/mL (≈ 0.43 µM)	0.89 µg/mL (≈ 2.13 µM)	0.37 µg/mL (≈ 0.884 µM)		
CC1(C)CCC[C@]2(C)[C@H]3C[C@@H](O)[C@]4(C)c5cocc5[C@H](O)C[C@H]4[C@]3(C)CC[C@@H]12 [SESTERSTATIN 4]	4.9 µg/mL (≈ 12.7 µM)	1.6 µg/mL (≈ 4.14 µM)	2 µg/mL (≈ 5.17 µM)	2.1 µg/mL (≈ 5.43 µM)	1.8 µg/mL (≈ 4.66 µM)	2 µg/mL (≈ 5.17 µM)	1.6 µg/mL (≈ 4.14 µM)		
C[C@]1(CO)CCC[C@]2(C)[C@H]3C[C@@H](O)[C@]4(C)C5=C(CC[C@H]4[C@]3(C)CC[C@@H]12)COC5=O [SESTERSTATIN 2]	4.2 µg/mL (≈ 10.4 µM)								
CC1(C)CCC[C@]2(C)[C@H]3C[C@@H](O)[C@]4(C)c5cocc5[C@@H](O)C[C@H]4[C@]3(C)CC[C@@H]12 [SESTERSTATIN 5]	> 10 µg/mL	2.2 µg/mL (≈ 5.69 µM)			2.5 µg/mL (≈ 6.47 µM)	1.9 µg/mL (≈ 4.91 µM)	1.9 µg/mL (≈ 4.91 µM)	2.1 µg/mL (≈ 5.43 µM)	1.9 µg/mL (≈ 4.91 µM)

From ChEMBL document CHEMBL1141781, “Antineoplastic agents. 542. Isolation and structure of sesterstatin 6 from the Indian Ocean sponge Hyrtios erecta” (2005)
